What was measured:
A549 = experiment: Cytotoxicity against human A549 cells assessed as growth level at 10 uM after 48 hrs by SRB assay; type: functional
Malme-3M = experiment: Cytotoxicity against human MALME-3M cells assessed as growth inhibition at 10 uM after 48 hrs by SRB assay; type: functional; conditions: read-out: GI
U-251 = experiment: Cytotoxicity against human U251 cells assessed as growth inhibition at 10 uM after 48 hrs by SRB assay; type: functional; conditions: U-251, 48 h, read-out: GI
[1] = Cytotoxicity against human BT549 cells assessed as growth level at 10 uM after 48 hrs by SRB assay; type: functional, BT-549
K562 = experiment: Cytotoxicity against human K562 cells assessed as growth inhibition at 10 uM after 48 hrs by SRB assay; type: functional; conditions: K562, 48 h, read-out: GI
EKVX = experiment: Cytotoxicity against human EKVX cells assessed as growth inhibition at 10 uM after 48 hrs by SRB assay; type: functional; conditions: read-out: GI
[2] = Cytotoxicity against human UO31 cells assessed as growth inhibition at 10 uM after 48 hrs by SRB assay; type: functional; conditions: UO-31, 48 h, read-out: GI
[3] = Cytotoxicity against human SNB19 cells assessed as growth inhibition at 10 uM after 48 hrs by SRB assay; type: functional; conditions: SNB-19, 48 h, read-out: GI
[4] = Cytotoxicity against human RXF393 cells assessed as growth inhibition at 10 uM after 48 hrs by SRB assay; type: functional; conditions: RXF 393, 48 h, read-out: GI
[5] = Cytotoxicity against human HCT116 cells assessed as growth level at 10 uM after 48 hrs by SRB assay; type: functional, HCT-116
[6] = Cytotoxicity against human IGROV1 cells assessed as growth inhibition at 10 uM after 48 hrs by SRB assay; type: functional; conditions: IGROV-1, 48 h, read-out: GI
[7] = Cytotoxicity against human Hs578T cells assessed as growth inhibition at 10 uM after 48 hrs by SRB assay; type: functional; conditions: Hs-578T, read-out: GI
MCF7 = experiment: Cytotoxicity against human MCF7 cells assessed as growth level at 10 uM after 48 hrs by SRB assay; type: functional
[8] = Cytotoxicity against human SNB19 cells assessed as growth level at 10 uM after 48 hrs by SRB assay; type: functional, SNB-19
[9] = Cytotoxicity against human MOLT4 cells assessed as growth level at 10 uM after 48 hrs by SRB assay; type: functional, MOLT-4
[10] = Cytotoxicity against human BT549 cells assessed as growth inhibition at 10 uM after 48 hrs by SRB assay; type: functional; conditions: BT-549, 48 h, read-out: GI
SK-MEL-28 [11] = experiment: Cytotoxicity against human SK-MEL-28 cells assessed as growth level at 10 uM after 48 hrs by SRB assay; type: functional
ACHN = experiment: Cytotoxicity against human ACHN cells assessed as growth level at 10 uM after 48 hrs by SRB assay; type: functional
[12] = Cytotoxicity against human HCT15 cells assessed as growth inhibition at 10 uM after 48 hrs by SRB assay; type: functional; conditions: HCT-15, 48 h, read-out: GI
T47D [13] = experiment: Cytotoxicity against human T47D cells assessed as growth level at 10 uM after 48 hrs by SRB assay; type: functional
[14] = Cytotoxicity against human OVCAR3 cells assessed as growth level at 10 uM after 48 hrs by SRB assay; type: functional, OVCAR-3
T47D [15] = experiment: Cytotoxicity against human T47D cells assessed as growth inhibition at 10 uM after 48 hrs by SRB assay; type: functional; conditions: read-out: GI
[16] = Cytotoxicity against human NCI-ADR-RES cells assessed as growth inhibition at 10 uM after 48 hrs by SRB assay; type: functional; conditions: read-out: GI
[17] = Cytotoxicity against human SF539 cells assessed as growth inhibition at 10 uM after 48 hrs by SRB assay; type: functional; conditions: SF-539, 48 h, read-out: GI
NCI-H460 [18] = experiment: Cytotoxicity against human NCI-H460 cells assessed as growth level at 10 uM after 48 hrs by SRB assay; type: functional
[19] = Cytotoxicity against human Caki1 cells assessed as growth level at 10 uM after 48 hrs by SRB assay; type: functional, CAKI-1
NCI-H460 [20] = experiment: Cytotoxicity against human NCI-H460 cells assessed as growth inhibition at 10 uM after 48 hrs by SRB assay; type: functional; conditions: NCI-H460, 48 h, read-out: GI
[21] = Cytotoxicity against human HCT116 cells assessed as growth inhibition at 10 uM after 48 hrs by SRB assay; type: functional; conditions: HCT-116, 48 h, read-out: GI
SK-MEL-5 = experiment: Cytotoxicity against human SK-MEL-5 cells assessed as growth inhibition at 10 uM after 48 hrs by SRB assay; type: functional; conditions: SK-MEL-5, 48 h, read-out: GI
[22] = Cytotoxicity against human HOP92 cells assessed as growth inhibition at 10 uM after 48 hrs by SRB assay; type: functional; conditions: HOP-92, 48 h, read-out: GI
M14 = experiment: Cytotoxicity against human M14 cells assessed as growth inhibition at 10 uM after 48 hrs by SRB assay; type: functional; conditions: M14, 48 h, read-out: GI
KM12 [23] = experiment: Cytotoxicity against human KM12 cells assessed as growth inhibition at 10 uM after 48 hrs by SRB assay; type: functional; conditions: KM12, 48 h, read-out: GI
MDA-MB-231 = experiment: Cytotoxicity against human MDA-MB-231 cells assessed as growth level at 10 uM after 48 hrs by SRB assay; type: functional
[24] = Cytotoxicity against human DU145 cells assessed as growth level at 10 uM after 48 hrs by SRB assay; type: functional, DU-145
[25] = Cytotoxicity against human OVCAR8 cells assessed as growth inhibition at 10 uM after 48 hrs by SRB assay; type: functional; conditions: OVCAR-8, 48 h, read-out: GI
[26] = Cytotoxicity against human SNB75 cells assessed as growth level at 10 uM after 48 hrs by SRB assay; type: functional, SNB-75
A498 = experiment: Cytotoxicity against human A498 cells assessed as growth inhibition at 10 uM after 48 hrs by SRB assay; type: functional; conditions: A498, 48 h, read-out: GI
NCI-H522 = experiment: Cytotoxicity against human NCI-H522 cells assessed as growth inhibition at 10 uM after 48 hrs by SRB assay; type: functional; conditions: NCI-H522, 48 h, read-out: GI
KM12 [27] = experiment: Cytotoxicity against human KM12 cells assessed as growth level at 10 uM after 48 hrs by SRB assay; type: functional
SN12C = experiment: Cytotoxicity against human SN12C cells assessed as growth level at 10 uM after 48 hrs by SRB assay; type: functional
SK-MEL-28 [28] = experiment: Cytotoxicity against human SK-MEL-28 cells assessed as growth inhibition at 10 uM after 48 hrs by SRB assay; type: functional; conditions: SK-MEL-28, 48 h, read-out: GI
SR = experiment: Cytotoxicity against human SR cells assessed as growth level at 10 uM after 48 hrs by SRB assay; type: functional
NCI-H226 = experiment: Cytotoxicity against human NCI-H226 cells assessed as growth level at 10 uM after 48 hrs by SRB assay; type: functional
[29] = Cytotoxicity against human DU145 cells assessed as growth inhibition at 10 uM after 48 hrs by SRB assay; type: functional; conditions: DU-145, 48 h, read-out: GI

In the case of C=C1CC[C@@H]2[C@](C)(COC(C)=O)[C@H](OC(C)=O)CC[C@@]2(C)[C@@H]1CC(NCCCCCCCC)C1=CCOC1=O (mixture of isomers), the Activity (A549) is reported as 67.24%, the inhibition of growth at 10 µM (Malme-3M) is reported as 15.8% and the inhibition of growth at 10 µM (U-251) is reported as 44.5%. It also gave an Activity [1] of 69.6%, an inhibition of growth at 10 µM (K562) of 65.3% and an inhibition of growth at 10 µM (EKVX) of 24.3%. The inhibition of growth at 10 µM [2] was 43.9%, the inhibition of growth at 10 µM [3] was 21.2% and the inhibition of growth at 10 µM [4] was 14.3%. For the same compound, the Activity [5] was 35.89%, the inhibition of growth at 10 µM [6] was 29.8% and the inhibition of growth at 10 µM [7] was 16.9%. The Activity (MCF7) was 68.8%, the Activity [8] was 78.29% and the Activity [9] was 36.47%. The inhibition of growth at 10 µM [10] was 30.4%, the Activity (SK-MEL-28 [11]) was 85.58% and the Activity (ACHN) was 85.98%. It also gave an inhibition of growth at 10 µM [12] of 33%, an Activity (T47D [13]) of 57.98% and an Activity [14] of 48.95%. The inhibition of growth at 10 µM (T47D [15]) was 42%, the inhibition of growth at 10 µM [16] was 12.3% and the inhibition of growth at 10 µM [17] was 10.8%. For the same compound, the Activity (NCI-H460 [18]) was 52.67%, the Activity [19] was 68.67% and the inhibition of growth at 10 µM (NCI-H460 [20]) was 47.3%. The inhibition of growth at 10 µM [21] was 64.1%, the inhibition of growth at 10 µM (SK-MEL-5) was 49.4% and the inhibition of growth at 10 µM [22] was 55.4%. The inhibition of growth at 10 µM (M14) was 24.1%, the inhibition of growth at 10 µM (KM12 [23]) was 31.4% and the Activity (MDA-MB-231) was 70.83%. It also gave an Activity [24] of 88.73%, an inhibition of growth at 10 µM [25] of 29% and an Activity [26] of 74.62%. For the same compound, the inhibition of growth at 10 µM (A498) was 35.7%, the inhibition of growth at 10 µM (NCI-H522) was 35.6% and the Activity (KM12 [27]) was 68.58%. It also gave an Activity (SN12C) of 73.09%, an inhibition of growth at 10 µM (SK-MEL-28 [28]) of 14.4% and an Activity (SR) of 36.8%. It also gave an Activity (NCI-H226) of 65.82% and an inhibition of growth at 10 µM [29] of 11.3%.

C=C1CC[C@@H]2[C@](C)(COC(C)=O)[C@H](OC(C)=O)CC[C@@]2(C)[C@@H]1CC(NCc1ccc(F)cc1)C1=CCOC1=O (mixture of isomers) gave an Activity (A549) of 57.9%, an inhibition of growth at 10 µM (Malme-3M) of 34.9% and an inhibition of growth at 10 µM (U-251) of 52%. The Activity [1] was 28.73%, the inhibition of growth at 10 µM (K562) was 81.2% and the inhibition of growth at 10 µM (EKVX) was 50%. For the same compound, the inhibition of growth at 10 µM [2] was 68.7%, the inhibition of growth at 10 µM [4] was 19.4% and the Activity [5] was 33.73%. It also gave an inhibition of growth at 10 µM [6] of 51.6%, an inhibition of growth at 10 µM [7] of 27.5% and an Activity (MCF7) of 16.58%. For the same compound, the Activity [9] was -0.37%, the inhibition of growth at 10 µM [10] was 71.3% and the Activity (SK-MEL-28 [11]) was 77.79%. The Activity (ACHN) was 50.93%, the inhibition of growth at 10 µM [12] was 63% and the Activity (T47D [13]) was 26.6%. For the same compound, the Activity [14] was 23.7%, the inhibition of growth at 10 µM (T47D [15]) was 73.4% and the inhibition of growth at 10 µM [16] was 71.8%. It also gave an inhibition of growth at 10 µM [17] of 35.5%, an Activity (NCI-H460 [18]) of 55.22% and an Activity [19] of 45.98%. The inhibition of growth at 10 µM (NCI-H460 [20]) was 44.8%, the inhibition of growth at 10 µM [21] was 66.3% and the inhibition of growth at 10 µM (SK-MEL-5) was 88.2%. For the same compound, the inhibition of growth at 10 µM [22] was 81.2%, the inhibition of growth at 10 µM (M14) was 62.7% and the inhibition of growth at 10 µM (KM12 [23]) was 53.5%. For the same compound, the Activity (MDA-MB-231) was 60.86%, the Activity [24] was 69.82% and the inhibition of growth at 10 µM [25] was 81.4%. For the same compound, the Activity [26] was 58.06%, the inhibition of growth at 10 µM (A498) was 48.3% and the inhibition of growth at 10 µM (NCI-H522) was 79.1%. For the same compound, the Activity (KM12 [27]) was 46.48%, the Activity (SN12C) was 46.23% and the inhibition of growth at 10 µM (SK-MEL-28 [28]) was 22.2%. The Activity (SR) was 7.69%, the Activity (NCI-H226) was 40.13% and the inhibition of growth at 10 µM [29] was 30.2%.
